Values quoted from earlier work, collected in PubChem BioAssay AID1259410 (Chemical Carcinogenesis Research Information System (CCRIS), 2018).
Numbered stars: 1 amine (or outer) side, 2 acyl side, 3 side chain; on linkers, the order of the positions; unused ones are H or OH. Square brackets hold non-standard residues; d marks the D form. Peptide text beside a SMILES is read from it. X1 = O=C(C(N[*:1])c1ccc(OS(=O)(=O)O)cc1)[*:2]

System: rodent tumor promotion studies, tumor incidence
Assay: CCRIS tumor promotion studies

CCCCCCCCCCCCCC(=O)O[C@@]12C[C@@H](C)[C@@]3(O)[C@@H](C=C(CO)C[C@]4(O)C(=O)C(C)=C[C@@H]34)[C@@H]1C2(C)C
outcome (Carcinogen: 7,12-DIMETHYLBENZ[A]ANTHRACENE, 57-97-6, Doses [Carcinogen]: 100 NMOL ONCE, Doses [Promoter]: 0, 80 NMOL 2/WK FOR 42 WK (STUDY DURATION: 42 WK), Route [Carcinogen]: DERMAL, Route [Promoter]: DERMAL, Species: MOUSE, Strain/Sex: NMRI): skin: tumor

Cn1cnc([N+](=O)[O-])c1Sc1ncnc2nc[nH]c12
outcome (Carcinogen: UV IRRADIATION, Doses [Carcinogen]: 0.53 J/CM2 INCREASED BY 20% EVERY 2 WK TO 1.60 J/CM2 AND MAINTAINED AT 1.60 J/CM2 UNTIL DEATH, ADMINISTERED 5 D/WK FOR 1, Doses [Promoter]: 0, 15 UG/G BEGINNING 2 WK POST FIRST CARCINOGEN DOSE ADMINISTERED 2 HR PRIOR TO EACH CARCINOGEN DOSE (STUDY DURATION: 30, Route [Carcinogen]: DERMAL, Route [Promoter]: INTRAPERITONEAL, Species: MOUSE, Strain/Sex: SKH/HRL/FEMALE): skin: tumor

C=C1C[C@@H]2[C@H](CC[C@]3(C)C(=O)CC[C@@H]23)[C@@]2(C)C=CC(=O)C=C12
outcome (Carcinogen: N-Methyl-N-nitrosourea, 684-93-5, Doses [Carcinogen]: 50 mg/kg bw, intraperitoneal, twice on days 43 and 49 of age, Doses [Promoter]: 0, 0.0001, 0.001% in diet from 7 d before carcinogen administration for 12 wks (Study duration 12 wks), Route [Carcinogen]: intraperitoneal, Route [Promoter]: Oral, Species: Rat, Strain/Sex: Sprague-Dawley/Female (19-20/Group)): mammary gland: various (statistically significant increase in tumor frequency, b

Cc1cc(=O)[nH]c(=S)[nH]1
outcome (Carcinogen: 2-(ACETYLAMINO)FLUORINE, Doses [Carcinogen]: IG, Doses [Promoter]: IN DIET, Route [Carcinogen]: GAVAGE, Route [Promoter]: ORAL, Species: RAT, Strain/Sex: MALE,FEMALE): thyroid gland

CC(C)(Oc1ccc(C2CCCc3ccccc32)cc1)C(=O)O (stereo not drawn)
outcome (Carcinogen: DIETHYLNITROSAMINE, 55-18-5, 2-ACETYLAMINOFLUORENE, 6292-55-3, CARBON TETRACHLORIDE, 56-23-5, Carcinogen: DIETHYLNITROSAMINE, 55-18-5, 2-ACETYLAMINOFLUORENE, 6292-55-3, CARBON TETRACHLORIDE, 56-23-5, Doses [Carcinogen]: 200 MG/KG ONCE FOLLOWED 2 WK LATER BY 0.03% 2-ACETYLAMINOFLUORENE IN DIET FOR 2 WK PLUS 2 ML/KG CARBON TETRACHLORIDE IN, Doses [Promoter]: 0.1% IN DIET STARTING 1 WK POST 2-ACETYLAMINOFLUORENE AND CONTINUED FOR 6 MO (STUDY DURATION: 7 MO), Route [Carcinogen]: INTRAPERITONEAL, ORAL, INTRAGASTRIC, Route [Carcinogen]: INTRAPERITONEAL, ORAL, INTRAGASTRIC, Route [Promoter]: ORAL, Species: RAT, Strain/Sex: WISTAR/MALE): liver: hepatocellular carcinoma

Nc1ncn([C@@H]2O[C@H](CO)[C@@H](O)[C@H]2O)c(=O)n1
outcome (Carcinogen: DIETHYLNITROSAMINE, 55-18-5, Doses [Carcinogen]: 50 MG/KG IN SALINE ADMINISTERED ONCE 18 HR AFTER PARTIAL HEPATECTOMY, Doses [Promoter]: 0, 2.5, 10 MG/KG 2/WK FOR 9 MO BEGINNING POST CARCINOGEN DOSE (STUDY DURATION: 18 MO), Doses [Promoter]: 0, 2.5, 10 MG/KG 2/WK FOR 9 MO BEGINNING POST CARCINOGEN DOSE (STUDY DURATION: 18 MO), Route [Promoter]: INTRAPERITONEAL, Species: RAT, Strain/Sex: F344/MALE): liver: hepatocellular carcinoma | outcome (Carcinogen: DIETHYLNITROSAMINE, 55-18-5, Doses [Carcinogen]: 80 MG/KG 1/WK FOR 5 WK, Doses [Promoter]: 0, 5, 10 MG/KG INJECTED 4, 24, AND 48 HR AFTER EACH CARCINOGEN EXPOSURE (STUDY DURATION: 6 MO), Doses [Promoter]: 0, 5, 10 MG/KG INJECTED 4, 24, AND 48 HR AFTER EACH CARCINOGEN EXPOSURE (STUDY DURATION: 6 MO), Route [Carcinogen]: INTRAPERITONEAL, Route [Promoter]: INTRAPERITONEAL, Species: RAT, Strain/Sex: BD6/MALE): liver: tumor

CC(=O)O
outcome (Carcinogen: LEAD SUBACETATE, 1335-32-6, Doses [Carcinogen]: 1% IN DIET FOR 18 MO, Doses [Promoter]: 0, 0.3, 1, 3, 6% IN DIET FOR 18 MO (STUDY DURATION: 79 WK), Doses [Promoter]: 0, 0.3, 1, 3, 6% IN DIET FOR 18 MO (STUDY DURATION: 79 WK), Route [Carcinogen]: ORAL, Route [Promoter]: ORAL, Species: RAT, Strain/Sex: SPRAGUE-DAWLEY/MALE): kidney: tumor

CCC(C)C(NC(=O)C(CCCNC(=N)N)NC(=O)C(Cc1c[nH]cn1)NC(=O)C(CO)NC(=O)C1CCCN1C(=O)C(CC(=O)O)NC(=O)C(CC(C)C)NC(=O)C(CC(N)=O)NC(=O)C(CCC(N)=O)NC(=O)C(CC(C)C)NC(=O)C(CC(N)=O)NC(=O)C(CCCCN)NC(=O)C(NC(=O)C(NC(=O)C(CO)NC(=O)C(CCSC)NC(=O)C(CCCNC(=N)N)NC(=O)CNC(=O)C(CO)NC(=O)C1CCCN1C(=O)C(C)NC(=O)C(N)CCCCN)C(C)CC)C(C)C)C(=O)NC(CO)C(=O)NC(CC(=O)O)C(=O)NC(CCCNC(=N)N)C(=O)NC(CC(=O)O)C(=O)NC(C(=O)NC(CCSC)C(=O)NCC(=O)NC(Cc1c[nH]c2ccccc12)C(=O)NC(CCSC)C(=O)NC(CC(=O)O)C(=O)NC(Cc1ccccc1)C(N)=O)c1ccc(OS(=O)(=O)O)cc1 (stereo not drawn) (H-KAPSGRMSIVKNLQNLDPSHRISDRD[X1]MGWMDF-NH2; configuration not given here)
outcome (Carcinogen: AZASERINE, 115-02-6, Doses [Carcinogen]: 30 MG/KG ON DAYS 19, 26, AND 54 OF AGE, Doses [Promoter]: 0, 2.5 UG/KG BW 1/D 3 D/WK FOR 8 MO BEGINNING 4 MO POST FIRST CARCINOGEN DOSE (STUDY DURATION: 8 MO), Route [Carcinogen]: INTRAPERITONEAL, Route [Promoter]: SUBCUTANEOUS, Species: RAT, Strain/Sex: WISTAR/MALE): pancreas: adenoma | outcome (Carcinogen: N-NITROSOBIS(2-OXOPROPYL)AMINE, 60599-38-4, Doses [Carcinogen]: 5 MG/KG 1/WK FOR STUDY DURATION, Doses [Promoter]: 0, 30 IDU/KG 3 D/WK FOR 6 WK (STUDY DURATION: 15 WK), Route [Carcinogen]: SUBCUTANEOUS, Route [Promoter]: SUBCUTANEOUS, Species: HAMSTER, Strain/Sex: SYRIAN/MALE): pancreas: adenocarcinoma

Cc1cc(C)cc(O)c1
outcome (Carcinogen: 7,12-DIMETHYLBENZ(A)ANTHRACENE, Doses [Carcinogen]: TOP, Route [Carcinogen]: DERMAL, Route [Promoter]: DERMAL, Species: MOUSE, Strain/Sex: FEMALE): integumentary system (skin)

O=NN(CCO)CCO
outcome (Carcinogen: NITROSO(2-OXOPROPYL)AMINE, 60599-38-4, Doses [Carcinogen]: 12 MG/ML IN ETHYL ACETATE/CORN OIL (1:1) 2/WK FOR 2 WK, Doses [Promoter]: 0, 100 MG/L IN DRINKING WATER 5 D/WK FOR 40 WK BEGINNING 1/WK POST CARCINOGEN TREATMENT (STUDY DURATION: 43 WK), Route [Carcinogen]: GAVAGE, Route [Promoter]: ORAL, Species: RAT, Strain/Sex: F344/MALE): kidney: renal cell carcinoma

CCCCC(CC)COC(=O)c1ccccc1C(=O)OCC(CC)CCCC (stereo not drawn)
outcome (Carcinogen: DIETHYLNITROSAMINE [55-18-5], Doses [Carcinogen]: 200 MG/KG BW ONCE (STUDY DURATION: 48 WK), Doses [Promoter]: 0, 30, 300, 3000, 12000 PPM IN DIET FOR 46 WK BEGINNING 2 WK POST CARCINOGEN DOSE AND 1 WK PRIOR TO 2/3 PARTIAL HEPATECT, Doses [Promoter]: 0, 30, 300, 3000, 12000 PPM IN DIET FOR 46 WK BEGINNING 2 WK POST CARCINOGEN DOSE AND 1 WK PRIOR TO 2/3 PARTIAL HEPATECT, Route [Carcinogen]: INTRAPERITONEAL, Route [Promoter]: ORAL, Species: RAT, Strain/Sex: F344/MALE): liver: hepatocellular adenoma | outcome (Carcinogen: DIETHYLNITROSAMINE [55-18-5], Doses [Carcinogen]: 200 MG/KG BW ONCE (STUDY DURATION: 52 WK), Doses [Promoter]: 0, 30, 300, 3000, 12000 PPM IN DIET FOR 46 WK BEGINNING 2 WK POST CARCINOGEN DOSE AND 1 WK PRIOR TO 2/3 PARTIAL HEPATECT, Doses [Promoter]: 0, 30, 300, 3000, 12000 PPM IN DIET FOR 46 WK BEGINNING 2 WK POST CARCINOGEN DOSE AND 1 WK PRIOR TO 2/3 PARTIAL HEPATECT, Route [Carcinogen]: INTRAPERITONEAL, Route [Promoter]: ORAL, Species: RAT, Strain/Sex: F344/MALE): liver: hepatocellular adenoma or carcinoma | outcome (Carcinogen: N-ETHYL-N-HYDROXYETHYLNITROSAMINE, 13147-25-6, Doses [Carcinogen]: 0.05% IN DRINKING WATER FOR 2 WK, Doses [Promoter]: 0, 1.2% IN DIET FOR 24 WK POST CARCINOGEN DOSE (STUDY DURATION: 27 WK), Route [Carcinogen]: ORAL, Species: RAT, Strain/Sex: F344/MALE): kidney: renal cell tumor | outcome (Carcinogen: N-NITROSODIETHYLAMINE, 55-18-5, Doses [Carcinogen]: 5 UG/G BW ONCE AT 15 D OF AGE, Doses [Promoter]: 0, 12000 PPM IN DIET BEGINNING AT 4 WK OF AGE AND CONTINUING FOR DURATION OF STUDY (STUDY DURATION: 28 WK), Route [Carcinogen]: INTRAPERITONEAL, Route [Promoter]: ORAL, Species: MOUSE, Strain/Sex: C3H/HENCR/FEMALE): liver: hepatocellular adenoma | outcome (Carcinogen: N-NITROSODIETHYLAMINE, 55-18-5, Doses [Carcinogen]: 5 UG/G BW ONCE AT 15 D OF AGE, Doses [Promoter]: 0, 12000 PPM IN DIET BEGINNING AT 4 WK OF AGE AND CONTINUING FOR DURATION OF STUDY (STUDY DURATION: 28 WK), Route [Carcinogen]: INTRAPERITONEAL, Route [Promoter]: ORAL, Species: MOUSE, Strain/Sex: C3H/HENCR/MALE): liver: hepatocellular adenoma | outcome (Carcinogen: N-NITROSODIETHYLAMINE, 7119-92-8, Doses [Carcinogen]: 80 MG/KG ONCE, Doses [Promoter]: 0, 3000 PPM IN DIET BEGINNING 1 WK POST CARCINOGEN DOSE AND CONTINUING FOR 168 D (STUDY DURATION: 259 D), Route [Carcinogen]: INTRAPERITONEAL, Route [Promoter]: ORAL, Species: MOUSE, Strain/Sex: B6C3F1/MALE): liver: hepatocellular adenoma
